Reference: patent US8399497B2, “Thiazole derivatives and use thereof” (Merck Serono SA, priority 2005, dated 2013)

Assays:
[1] = target: Human recombinant GST-PI3Kγ (Homo sapiens, UniProt P48736); assay: High throughput PI3K lipid kinase assay (SPA, neomycin-coated beads); type: biochemical
Source text: a) High Throughput PI3K Lipid Kinase Assay (Binding Assay):
The efficacy of compounds of the invention in inhibiting the PI3K induced-lipid phosphorylation may be tested in the following binding assay.
The assay combines the scintillation proximity assay technology (SPA, Amersham) with the capacity of neomycin (a polycationic antibiotic) to bind phospholipids with high affinity and specificity. The Scintillation Proximity Assay is based on the properties of weakly emitting isotopes (such as ^3H, ^125I, ^33P). Coating SPA beads with neomycin allows the detection of phosphorylated lipid substrates after incubation with recombinant PI3K and radioactive ATP in the same well, by capturing the radioactive phospholipids to the SPA beads through their specific binding to neomycin.
To a 384 wells MTP containing 5 μl of the test compound of Formula (I) (solubilized in 6% DMSO; to yield a concentration of 100, 30, 10, 3, 1, 0.3, 0.1, 0.03, 0.01, 01 μM of the test compound), the following assay components are added. 1) 5 μl (58 ng) of Human recombinant GST-PI3Kγ (in Hepes 40 mM, pH 7.4, DTT 1 mM and ethylenglycol 5%) 2) 10 μl of lipid micelles and 3) 10 μl of Kinase buffer ([^33P]γ-ATP 45 μM/60 nCi, MgCl2 30 mM, DTT 1 mM, β-Glycerophosphate 1 mM, Na3VO4 100 μM, Na Cholate 0.3%, in Hepes 40 mM, pH 7.4). After incubation at room temperature for 180 minutes, with gentle agitation, the reaction is stopped by addition of 60 μl of a solution containing 100 μg of neomycin-coated PVT SPA beads in PBS containing ATP 10 mM and EDTA 5 mM. The assay is further incubated at room temperature for 60 minutes with gentle agitation to allow binding of phospholipids to neomycin-SPA beads. After precipitation of the neomycin-coated PVT SPA beads for 5 minutes at 1500×g, radioactive PtdIns(3)P is quantified by scintillation counting in a Wallac MicroBeta™ plate counter.
The values indicated in Table II below refer to the IC50 (μM) with respect to PI3Kγ, i.e. the amount necessary to achieve 50% inhibition of said target. Said values show a considerable inhibitory potency of thiazole compounds with regard to PI3Kγ.

[2] = tested on: PI3K induced Akt/PKB phosphorylation in Raw 264-7 macrophages; assay: Cell based ELISA of Akt/PKB phosphorylation in macrophages after Complement 5a stimulation; conditions: Mus musculus, RAW264.7, 5 min, 50 nM Complement 5a for 5 minutes, read-out: Cell Assay (P-Akt, Elisa) IC50
Procedure: b) Cell Based ELISA to Monitor PI3K Inhibition:
The efficacy of compounds of the invention in inhibiting the PI3K induced Akt/PKB phosphorylation may be tested in the following cell based assay.
Measurement of Akt/PKB phosphorylation in macrophages after stimulation with Complement 5a: Raw 264: Raw 264-7 macrophages (cultured in DMEM-F12 medium containing 10% Fetal Calf serum and antibiotics) are plated at 20,000 cells/well in a 96 MTP 24 h before cell stimulation. Prior to the stimulation with 50 nM of Complement 5a during 5 minutes, Cells are serum starved for 2 h, and pretreated with inhibitors for 20 minutes. After stimulation cells are fixed in 4% formaldehyde for 20 minutes and washed 3 times in PBS containing 1% Triton X-100 (PBS/Triton). Endogenous peroxidase is blocked by a 20 minutes incubation in 0.6% H2O2 and 0.1% Sodium Azide in PBS/Triton and washed 3 times in PBS/Triton. Cells are then blocked by 60 minutes incubation with 10% fetal calf serum in PBS/Triton. Next, phosphorylated Akt/PKB is detected by an overnight incubation at 4° C. with primary antibody (anti phospho Serine 473 Akt IHC, Cell Signaling) diluted 800-fold in PBS/Triton, containing 5% bovine serum albumin (BSA). After 3 washes in PBS/Triton, cells are incubated for 60 minutes with a peroxidase conjugated goat-anti-rabbit secondary antibody (1/400 dilution in PBS/Triton, containing 5% BSA), washed 3 times in PBS/Triton, and 2 times in PBS and further incubated in 100 μl of luminescent substrate reagent solution (Pierce) for 2 minutes, followed by the reading (1 s/well).
The values indicated in Table III below reflect the percentage of inhibition of AKT phoshorylation as compared to basal level. Said values show a clear effect of the thiazole compounds on the activation of AKT phosphorylation in macrophages.

Neutrophil recruitment = assay: Thioglycollate-induced peritoneal cavity cell recruitment model, neutrophils; type: in vivo, C3H mice; conditions: 10 mg/kg orally, lavage 4 h after thioglycollate
Procedure: Thioglycollate-Induced Pertioneal Cavity Cell Recruitment Model
The in vivo efficacy of compounds of the invention in inhibiting the migration of leukocytes upon intraperitoneal challenge of thioglycollate may be tested with the following assay.
8-10 weeks old female C3H mice are fasted during 18 hours. 15 minutes prior the intraperitoneal injection of thioglycollate (1.5%, 40 ml/kg), the mice are treated orally with Thiazoles of Formula (I). Control mice receive CMC/Tween as vehicle (10 ml/kg). The mice are then sacrificed by CO2 inhalation and the peritoneal cavity is washed two times with 5 ml of ice-cold PBS/1 mM EDTA. The lavages are done 4 hours or 48 hours after thioglycollate challenge to evaluate neutrophils or macrophages recruitment, respectively. The white blood cells (neutrophils, lymphocytes or macrophages) are counted using a Beckman Coulter® A ^cT 5diff™. Dexamethasone is used as reference drug.

Human recombinant GST-PI3Kγ, sequence (P48736 whole entry): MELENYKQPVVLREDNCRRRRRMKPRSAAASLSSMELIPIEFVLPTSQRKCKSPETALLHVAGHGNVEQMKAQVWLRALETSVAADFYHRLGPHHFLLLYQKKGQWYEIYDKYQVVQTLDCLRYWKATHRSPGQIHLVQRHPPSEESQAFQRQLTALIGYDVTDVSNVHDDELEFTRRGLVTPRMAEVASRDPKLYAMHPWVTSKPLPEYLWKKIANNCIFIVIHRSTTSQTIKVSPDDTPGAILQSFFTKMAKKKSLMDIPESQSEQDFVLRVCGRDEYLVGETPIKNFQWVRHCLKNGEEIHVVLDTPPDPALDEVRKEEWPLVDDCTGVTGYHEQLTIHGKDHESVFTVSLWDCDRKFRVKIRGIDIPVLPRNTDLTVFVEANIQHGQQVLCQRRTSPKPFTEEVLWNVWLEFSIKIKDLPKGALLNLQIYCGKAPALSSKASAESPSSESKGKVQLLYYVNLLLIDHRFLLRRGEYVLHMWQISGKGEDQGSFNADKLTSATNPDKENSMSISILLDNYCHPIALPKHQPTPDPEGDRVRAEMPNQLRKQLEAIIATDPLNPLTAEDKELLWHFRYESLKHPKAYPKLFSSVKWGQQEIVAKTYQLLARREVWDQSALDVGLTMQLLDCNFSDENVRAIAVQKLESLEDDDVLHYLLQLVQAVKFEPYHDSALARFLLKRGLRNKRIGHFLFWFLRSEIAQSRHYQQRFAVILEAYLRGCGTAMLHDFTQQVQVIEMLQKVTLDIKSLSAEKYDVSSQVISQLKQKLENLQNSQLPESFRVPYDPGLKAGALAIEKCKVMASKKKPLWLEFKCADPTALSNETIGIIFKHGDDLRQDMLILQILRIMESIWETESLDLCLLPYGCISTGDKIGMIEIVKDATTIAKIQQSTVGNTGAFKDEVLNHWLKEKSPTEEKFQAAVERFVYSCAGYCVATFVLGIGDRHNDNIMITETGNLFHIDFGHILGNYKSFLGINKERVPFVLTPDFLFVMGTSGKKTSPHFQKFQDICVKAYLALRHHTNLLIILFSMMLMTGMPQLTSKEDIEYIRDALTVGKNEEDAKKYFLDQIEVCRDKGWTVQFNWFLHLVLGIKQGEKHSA

Row | SMILES | IC50 [1] | IC50 [2] | % inhibition of Neutrophil recruitment at 10 mg/kg after 4 h (Neutrophil recruitment)
1 | CC(=O)Nc1nc(C)c(-c2ccc(S(=O)(=O)NCCCN(C)C)s2)s1 [Example 10, N-{5-[5-({[3-(dimethylamino)propyl]amino}sulfonyl)-2-thienyl]-4-methyl-1,3-thiazol-2-yl}acetamide] | 289 nM | 1290 nM | 58%
2 | CNC(=O)CNS(=O)(=O)c1ccc(-c2sc(NC(C)=O)nc2C)s1 [Example 12, N~2~-({5-[2-(acetylamino)-4-methyl-1,3-thiazol-5-yl]-2-thienyl}sulfonyl)-N~1~-methylglycinamide] | 522 nM |  | 
3 | CC(=O)Nc1nc(C)c(-c2ccc(S(=O)(=O)N(C)CCN(C)C)s2)s1 [Example 5, N-[5-(5-{[[2-(dimethylamino)ethyl](methyl)amino]sulfonyl}-2-thienyl)-4-methyl-1,3-thiazol-2-yl]acetamide] | 20 nM |  | 
4 | CC(=O)Nc1nc(C)c(-c2ccc(S(=O)(=O)N3CCN(C(C)=O)CC3)s2)s1 [Example 2, N-(5-{5-[(4-acetylpiperazin-1-yl)sulfonyl]-2-thienyl}-4-methyl-1,3-thiazol-2-yl)acetamide] | 396 nM |  | 
5 | C#CCNS(=O)(=O)c1ccc(-c2sc(NC(C)=O)nc2C)s1 [Example 1, N-(4-methyl-5-{5-[(prop-2-yn-1-ylamino)sulfonyl]-2-thienyl}-1,3-thiazol-2-yl)acetamide] | 119 nM | 660 nM | 
6 | CC(=O)Nc1nc(C)c(-c2csc(S(=O)(=O)NCCN(C)C)c2)s1 [Example 23, N-{5-[5-({[2-(dimethylamino)ethyl]amino}sulfonyl)-3-thienyl]-4-methyl-1,3-thiazol-2-yl}acetamide] | 28 nM | 480 nM | 
7 | CC(=O)Nc1nc(C)c(-c2csc(S(=O)(=O)N3CCCC(O)C3)c2)s1 (stereo not drawn) [Example 48, N-(5-{5-[(3-hydroxypiperidin-1-yl)sulfonyl]-3-thienyl}-4-methyl-1,3-thiazol-2-yl)acetamide] |  | 150 nM | 
8 | CC(=O)Nc1nc(C)c(-c2ccc(S(=O)(=O)N3CCN(C)CC3)s2)s1 [Example 8, N-(4-methyl-5-{5-[(4-methylpiperazin-1-yl)sulfonyl]-2-thienyl}-1,3-thiazol-2-yl)acetamide] | 170 nM |  | 
9 | CC(=O)Nc1nc(C)c(-c2ccc(S(=O)(=O)NCCN3CCOCC3)s2)s1 [Example 9, N-[4-methyl-5-(5-{[(2-morpholin-4-ylethyl)amino]sulfonyl}-2-thienyl)-1,3-thiazol-2-yl]acetamide] | 158 nM | 850 nM | 48%
10 | CC(=O)Nc1nc(C)c(-c2ccc(S(=O)(=O)N3CCNCC3)s2)s1 [Example 11, N-{4-methyl-5-[5-(piperazin-1-ylsulfonyl)-2-thienyl]-1,3-thiazol-2-yl}acetamide] | 200 nM |  | 
11 | CC(=O)Nc1nc(C)c(-c2ccc(S(=O)(=O)NCC3COC(C)(C)O3)s2)s1 (stereo not drawn) [Example 14, N-{5-[5-({[(2,2-dimethyl-1,3-dioxolan-4-yl)methyl]amino}sulfonyl)-2-thienyl]-4-methyl-1,3-thiazol-2-yl}acetamide] | 198 nM |  | 
12 | CC(=O)Nc1nc(C)c(-c2ccc(S(=O)(=O)N(C)C)s2)s1 [Example 18, N-(5-{5-[(dimethylamino)sulfonyl]-2-thienyl}-4-methyl-1,3-thiazol-2-yl)acetamide] | 105 nM |  | 
13 | CC(=O)Nc1nc(C)c(-c2ccc(S(=O)(=O)N[C@@H](CO)C(=O)O)s2)s1 [Example 16, N-({5-[2-(acetylamino)-4-methyl-1,3-thiazol-5-yl]-2-thienyl}sulfonyl)serine] | 373 nM |  | 
14 | CC(=O)Nc1nc(C)c(-c2csc(S(=O)(=O)N3CCNCC3)c2)s1 [Example 26, N-{4-methyl-5-[5-(piperazin-1-ylsulfonyl)-3-thienyl]-1,3-thiazol-2-yl}acetamide] | 67 nM |  | 
15 | CC(=O)Nc1nc(C)c(-c2ccc(S(=O)(=O)NCC(O)CO)s2)s1 (stereo not drawn) [Example 17, N-[5-(5-{[(2,3-dihydroxypropyl)amino]sulfonyl}-2-thienyl)-4-methyl-1,3-thiazol-2-yl]acetamide] | 71 nM |  | 

Further molecules by falling IC50 [1], results first:

Row | IC50 [1] | IC50 [2] | SMILES | % inhibition of Neutrophil recruitment at 10 mg/kg after 4 h (Neutrophil recruitment)
16 | 1200 nM |  | COC(=O)CCCC(=O)Nc1nc(C)c(-c2ccc(S(=O)(=O)NCCN3CCOCC3)s2)s1 [Example 7, methyl 5-{[4-methyl-5-(5-{[(2-morpholin-4-ylethyl)amino]sulfonyl}-2-thienyl)-1,3-thiazol-2-yl]amino}-5-oxopentanoate] | 
17 | 298 nM |  | CC(=O)Nc1nc(C)c(-c2ccc(S(=O)(=O)NC3CCN(C)CC3)s2)s1 [Example 4, N-[4-methyl-5-(5-{[(1-methylpiperidin-4-yl)amino]sulfonyl}-2-thienyl)-1,3-thiazol-2-yl]acetamide] | 
18 | 109 nM |  | CC(=O)NCCNS(=O)(=O)c1ccc(-c2sc(NC(C)=O)nc2C)s1 [Example 13, N-{5-[5-({[2-(acetylamino)ethyl]amino}sulfonyl)-2-thienyl]-4-methyl-1,3-thiazol-2-yl}acetamide] | 
19 | 78 nM |  | CC(=O)Nc1nc(C)c(-c2csc(S(=O)(=O)NC3CCN(C)CC3)c2)s1 [Example 28, N-[4-methyl-5-(5-{[(1-methylpiperidin-4-yl)amino]sulfonyl}-3-thienyl)-1,3-thiazol-2-yl]acetamide] | 
20 | 70 nM |  | COC(=O)[C@H](CO)NS(=O)(=O)c1ccc(-c2sc(NC(C)=O)nc2C)s1 [Example 15, methyl N-({5-[2-(acetylamino)-4-methyl-1,3-thiazol-5-yl]-2-thienyl}sulfonyl)serinate] | 
21 | 28 nM | 460 nM | CC(=O)Nc1nc(C)c(-c2csc(S(=O)(=O)N3CCN(C)CC3)c2)s1 [Example 29, N-(4-methyl-5-{5-[(4-methylpiperazin-1-yl)sulfonyl]-3-thienyl}-1,3-thiazol-2-yl)acetamide] | 28%
22 | 27 nM | > 30000 nM | CC(=O)Nc1nc(C)c(-c2csc(S(=O)(=O)N3CCOCC3)c2)s1 [Example 46, N-{4-methyl-5-[5-(morpholin-4-ylsulfonyl)-3-thienyl]-1,3-thiazol-2-yl}acetamide] | 36%
23 | 16 nM |  | CC(=O)Nc1nc(C)c(-c2csc(S(=O)(=O)NCCN3CCOCC3)c2)s1 [Example 24, N-[4-methyl-5-(5-{[(2-morpholin-4-ylethyl)amino]sulfonyl}-3-thienyl)-1,3-thiazol-2-yl]acetamide] | 
